Source: patent US20110189169A1, “COMBINATION OF HGF INHIBITOR AND PTEN AGONIST TO TREAT CANCER” (GALAXY BIOTECH, LLC, priority 2008, published 2011)

Key:
cMet receptor = cMet receptor (Homo sapiens, UniProt P08581); settings: read-out: Kd, high affinity binding site; cited from earlier work
[1] = target: heparin sulfate proteoglycans (HSPG); settings: read-out: Kd, low affinity binding site; cited from earlier work
U-87 MG cells = assay: Subcutaneous human glioblastoma U-87 MG tumor xenograft model; type: in vivo, athymic nude mice (BALB/c-nu/nu); settings: HuL2G7 0.5 mg/kg i.v. days 12 and 18
Method: The combination effect of HuL2G7 with Rapamycin was examined in human glioblastoma U-87 MG tumor xenograft model. Female athymic nude mice (BALB/c-nu/nu, 30 animals) were purchased from Charles River Laboratories (Kanagawa, Japan). Mice were housed in a barrier facility with 12-h light/dark cycles and provided with food and tap water ad libitum and maintained for three weeks. U-87 MG cells (2.5×10^6 in 100 μL) were suspended with 50% Matrigel (BD Biosciences) buffered with Hanks. balanced salt solution (Invitrogen Corp, Carlsbad, Calif., USA) and inoculated subcutaneously into the right-flank of each mouse. After the tumor xenografts were established, at day 12 after inoculation, mice with tumors (approximately 95-272 mm^3) were randomized into groups of 4 (n=6) based on tumor volumes so as to minimize variation in tumor volumes. Then each group was treated with vehicle, HuL2G7, Rapamycin, or both drugs. […] Tumor volumes were assessed by bilateral vernier caliper measurement at days 12, 15, 18, 22, and 26 after inoculation and calculated using the formula, length×width^2×½, where length was taken to be the longest diameter across the tumor and width the corresponding perpendicular. Tumor growth was evaluated by the following formula: T/C (%)=ΔT/ΔC×100, where ΔT and ΔC are changes in tumor volume for each treated and vehicle control group. […]

Sequence of cMet receptor (P08581 25-1390): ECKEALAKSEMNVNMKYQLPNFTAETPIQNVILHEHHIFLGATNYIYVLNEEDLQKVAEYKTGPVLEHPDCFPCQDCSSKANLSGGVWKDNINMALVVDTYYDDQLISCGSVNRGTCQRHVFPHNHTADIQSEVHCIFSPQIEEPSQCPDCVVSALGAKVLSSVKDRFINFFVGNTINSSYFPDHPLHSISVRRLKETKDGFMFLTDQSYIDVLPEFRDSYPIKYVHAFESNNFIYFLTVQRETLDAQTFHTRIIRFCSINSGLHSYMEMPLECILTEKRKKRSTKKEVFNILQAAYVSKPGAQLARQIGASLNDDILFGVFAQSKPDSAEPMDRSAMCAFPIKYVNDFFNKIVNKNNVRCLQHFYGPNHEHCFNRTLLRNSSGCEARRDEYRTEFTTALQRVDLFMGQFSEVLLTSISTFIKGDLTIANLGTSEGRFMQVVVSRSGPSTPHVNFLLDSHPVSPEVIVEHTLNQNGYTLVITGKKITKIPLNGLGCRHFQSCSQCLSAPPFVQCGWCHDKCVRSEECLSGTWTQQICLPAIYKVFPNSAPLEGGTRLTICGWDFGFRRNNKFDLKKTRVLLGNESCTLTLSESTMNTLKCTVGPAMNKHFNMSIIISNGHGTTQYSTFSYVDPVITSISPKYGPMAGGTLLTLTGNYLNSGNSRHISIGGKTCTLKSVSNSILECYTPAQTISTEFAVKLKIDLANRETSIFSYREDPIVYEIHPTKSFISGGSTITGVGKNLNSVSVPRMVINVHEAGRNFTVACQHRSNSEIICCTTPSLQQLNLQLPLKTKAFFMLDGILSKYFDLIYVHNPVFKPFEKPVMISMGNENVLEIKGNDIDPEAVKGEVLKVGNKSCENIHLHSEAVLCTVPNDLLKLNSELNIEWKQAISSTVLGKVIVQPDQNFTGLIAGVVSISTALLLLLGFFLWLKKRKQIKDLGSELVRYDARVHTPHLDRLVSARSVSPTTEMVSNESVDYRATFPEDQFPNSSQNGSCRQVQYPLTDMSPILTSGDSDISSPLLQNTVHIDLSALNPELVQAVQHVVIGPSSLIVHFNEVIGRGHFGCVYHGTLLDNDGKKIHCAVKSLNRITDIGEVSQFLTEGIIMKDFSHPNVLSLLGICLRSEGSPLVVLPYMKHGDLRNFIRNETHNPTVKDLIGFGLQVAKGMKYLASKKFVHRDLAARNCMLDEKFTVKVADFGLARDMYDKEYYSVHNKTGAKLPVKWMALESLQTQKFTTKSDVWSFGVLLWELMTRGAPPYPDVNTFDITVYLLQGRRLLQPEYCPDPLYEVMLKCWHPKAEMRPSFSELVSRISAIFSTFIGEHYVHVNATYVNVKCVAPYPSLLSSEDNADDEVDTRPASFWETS

Compound | Kd (cMet receptor) | Kd [1] | general observations of animals (U-87 MG cells; Rapamycin 0.1 mg/kg i.p. days 12-26, or both) | T/C (%)=ΔT/ΔC×100 (U-87 MG cells; day 26, Rapamycin 0.1 mg/kg i.p. once-daily days 12-26)
HGF: Human Hepatocyte Growth Factor, 102 kDa heterodimeric polypeptide, ligand of cMet | 0.2 nM | 1 nM |  | 
CO[C@H]1C[C@@H]2CC[C@@H](C)[C@@](O)(O2)C(=O)C(=O)N2CCCC[C@H]2C(=O)O[C@H]([C@H](C)C[C@@H]2CC[C@@H](O)[C@H](OC)C2)CC(=O)[C@H](C)/C=C(\C)[C@@H](O)[C@@H](OC)C(=O)[C@H](C)C[C@H](C)/C=C/C=C/C=C/1C [rapamycin, reference compound] |  |  | no abnormalities in general observations | 9.6%
